System: total RNA from PBMCs
Assay: RNA-seq gene expression before and after 4 weeks of amisulpride treatment
Assay type: in vivo, human
Settings: for FC, fold-change at week 4 relative to the expression level at inclusion: AC073172.1 / FC, fold-change at week 4 relative to the expression level at inclusion: AC092171.4 / FC, fold-change at week 4 relative to the expression level at inclusion: AC132872.1 / FC, fold-change at week 4 relative to the expression level at inclusion: ACSL5 / FC, fold-change at week 4 relative to the expression level at inclusion: AL133351.4 / FC, fold-change at week 4 relative to the expression level at inclusion: AL391832.3 / FC, fold-change at week 4 relative to the expression level at inclusion: ALG1L13P / FC, fold-change at week 4 relative to the expression level at inclusion: ALPL / FC, fold-change at week 4 relative to the expression level at inclusion: AP000640.1 / FC, fold-change at week 4 relative to the expression level at inclusion: C15orf54 / FC, fold-change at week 4 relative to the expression level at inclusion: CA4 / FC, fold-change at week 4 relative to the expression level at inclusion: CXCR6 / FC, fold-change at week 4 relative to the expression level at inclusion: CYSLTR2 / FC, fold-change at week 4 relative to the expression level at inclusion: DGAT2 / FC, fold-change at week 4 relative to the expression level at inclusion: DHRS13 / FC, fold-change at week 4 relative to the expression level at inclusion: FAT1 / FC, fold-change at week 4 relative to the expression level at inclusion: FBXL13 / FC, fold-change at week 4 relative to the expression level at inclusion: GALNT14 / FC, fold-change at week 4 relative to the expression level at inclusion: GUCY1B3 / FC, fold-change at week 4 relative to the expression level at inclusion: HOMER3 / FC, fold-change at week 4 relative to the expression level at inclusion: KAZN / FC, fold-change at week 4 relative to the expression level at inclusion: KIAA0319 / FC, fold-change at week 4 relative to the expression level at inclusion: LINC00963 / FC, fold-change at week 4 relative to the expression level at inclusion: NFE4 / FC, fold-change at week 4 relative to the expression level at inclusion: NLRP6 / FC, fold-change at week 4 relative to the expression level at inclusion: NLRP12 / FC, fold-change at week 4 relative to the expression level at inclusion: P2RY12 / FC, fold-change at week 4 relative to the expression level at inclusion: P4HA2 / FC, fold-change at week 4 relative to the expression level at inclusion: PLB1 / FC, fold-change at week 4 relative to the expression level at inclusion: SLC4A4 / FC, fold-change at week 4 relative to the expression level at inclusion: TRPC6 / FC, fold-change at week 4 relative to the expression level at inclusion: WLS: 4 weeks amisulpride
Description: The cohort analysed in this study was obtained from the OPTiMiSE clinical trial (http://www.optimisetrial.eu) (29). After providing written informed consent, 491 patients with a first episode psychosis were included and 453 started medication. All patients were diagnosed with schizophrenia, schizophreniform disorder or schizoaffective disorder according to the Diagnostic and Statistical Manual of Mental Disorders, Fourth Edition (DSM-IV) and confirmed on the basis of the Mini International Neuropsychiatric Interview Plus (M.I.N.I. Plus) (30) (table 4). At baseline, patients were medication-naïve or minimally-treated (any antipsychotic medication used for […] 2 weeks in the previous year or for a total of 6 weeks in their lifetime) and were ill for no longer than 2 years. Only subjects involved in the single-treatment arm (phase 1) of the trial were considered for this study (29). All patients were treated for 4 weeks with amisulpride (200-800 mg/day orally). At the end of the 4-week treatment, the blood concentration of antipsychotic used has been determined. This measurement provided a reliable indication of the treatment compliance of individual patients.
A DNase digestion procedure was added after extraction. Total RNA was purified using the RNA Clean & Concentrator™-5 kit following the manufacturer's instructions (Zymo Research Corp., Irvine, USA). RNA quantification was performed on a NanoDrop™ 8000 spectrophotometer, in duplicate. The quality and integrity of the RNA samples were assessed using an Agilent Bioanalyzer 2100 and the RNA6000 Nano Labchip kit (Agilent Technologies). Only samples with an RNA integrity number (RIN) higher than 7 were selected. Three hundred and seventy-six RNA samples fulfilled quality control criteria for RNA-seq analyses, corresponding to two RNA samples (one at inclusion and one after 4 weeks of treatment) for 188 subjects. Forty-eight additional RNAs were available for replication studies, in 24 independent subjects.
All libraries were prepared using the Illumina TruSeq Stranded Total RNA with Ribo-Zero Globin kit (Illumina Inc., San Diego, Calif., U.S.A.), which removes ribosomal RNA and globin mRNA. Libraries were prepared using one microgram of total RNA as initial input and following the standard protocols. After library quality control, 2×100 bp paired-end (PE) sequencing was performed on a HiSeq4000 system (Illumina), pooling a maximum of 6 samples on each lane, in order to reach 40 to 50 million of PE-reads for each sample. The Illumina pipeline was used to generate raw RNA sequencing data (fastq files) for each sample. Sequence quality controls were performed, using FastQC and in-house bioinformatics pipelines, from a sampling of 2×10 million reads in order to assess the levels of read duplicates, adapters, remaining rRNA and the GC content. Reads were trimmed for adapters and low-quality bases (Phred quality score <30) using Trimmomatic software (v.0.32). Reads were then mapped to the Genome Reference Consortium human genome assembly 37 (GRCh37) reference genome (hg19) using Tophat software (v.2.0.13). Read mapping quality was assessed using RNA-SeQC software. Then, gene-level quantification in read counts was performed by HTSeq software (v.0.6.1), using gene annotation from Ensembl v.86. All downstream analyses were conducted using the statistical software R (v.3.2.4) and Bioconductor R packages. Genes with counts-per million (cpm) below 1 in more than two third of the samples were considered unexpressed and removed from the analysis using edgeR package (v.3.12.1). Raw gene counts matrix has been normalized to account for differences in sequencing depth and RNA composition using the “median ratio” method implemented in the DESeq2 package (v.1.16.1). To avoid batch effects as confounding factors, all subjects had their 2 time-points in a same batch. […]

CCN1CCCC1CNC(=O)c1cc(S(=O)(=O)CC)c(N)cc1OC (centres unmarked) [amisulpride, 4-amino-N-((1-ethyl-2-pyrrolidinyl)methyl)-5-(etgylsulfonyl)-2-methoxybenzamide]
FC, fold-change at week 4 relative to the expression level at inclusion: AC073172.1 (good responders (n = 113)): 0.72 | FC, fold-change at week 4 relative to the expression level at inclusion: AC073172.1 (poor responders (n = 75)): 0.97 | FC, fold-change at week 4 relative to the expression level at inclusion: AC092171.4 (good responders (n = 113)): 0.85 | FC, fold-change at week 4 relative to the expression level at inclusion: AC092171.4 (poor responders (n = 75)): 1.06 | FC, fold-change at week 4 relative to the expression level at inclusion: AC132872.1 (good responders (n = 113)): 0.81 | FC, fold-change at week 4 relative to the expression level at inclusion: AC132872.1 (poor responders (n = 75)): 1.05 | FC, fold-change at week 4 relative to the expression level at inclusion: ACSL5 (good responders (n = 113)): 1.06 | FC, fold-change at week 4 relative to the expression level at inclusion: ACSL5 (poor responders (n = 75)): 0.99 | FC, fold-change at week 4 relative to the expression level at inclusion: AL133351.4 (good responders (n = 113)): 0.88 | FC, fold-change at week 4 relative to the expression level at inclusion: AL133351.4 (poor responders (n = 75)): 1.04 | FC, fold-change at week 4 relative to the expression level at inclusion: AL391832.3 (good responders (n = 113)): 0.88 | FC, fold-change at week 4 relative to the expression level at inclusion: AL391832.3 (poor responders (n = 75)): 1.00 | FC, fold-change at week 4 relative to the expression level at inclusion: ALG1L13P (good responders (n = 113)): 0.89 | FC, fold-change at week 4 relative to the expression level at inclusion: ALG1L13P (poor responders (n = 75)): 1.02 | FC, fold-change at week 4 relative to the expression level at inclusion: ALPL (good responders (n = 113)): 0.79 | FC, fold-change at week 4 relative to the expression level at inclusion: ALPL (poor responders (n = 75)): 1.09 | FC, fold-change at week 4 relative to the expression level at inclusion: AP000640.1 (good responders (n = 113)): 0.84 | FC, fold-change at week 4 relative to the expression level at inclusion: AP000640.1 (poor responders (n = 75)): 1.00 | FC, fold-change at week 4 relative to the expression level at inclusion: C15orf54 (good responders (n = 113)): 1.18 | FC, fold-change at week 4 relative to the expression level at inclusion: C15orf54 (poor responders (n = 75)): 1.07 | FC, fold-change at week 4 relative to the expression level at inclusion: CA4 (good responders (n = 113)): 0.76 | FC, fold-change at week 4 relative to the expression level at inclusion: CA4 (poor responders (n = 75)): 1.07 | FC, fold-change at week 4 relative to the expression level at inclusion: CXCR6 (good responders (n = 113)): 1.14 | FC, fold-change at week 4 relative to the expression level at inclusion: CXCR6 (poor responders (n = 75)): 1.03 | FC, fold-change at week 4 relative to the expression level at inclusion: CYSLTR2 (good responders (n = 113)): 1.13 | FC, fold-change at week 4 relative to the expression level at inclusion: CYSLTR2 (poor responders (n = 75)): 1.01 | FC, fold-change at week 4 relative to the expression level at inclusion: DGAT2 (good responders (n = 113)): 0.87 | FC, fold-change at week 4 relative to the expression level at inclusion: DGAT2 (poor responders (n = 75)): 1.08 | FC, fold-change at week 4 relative to the expression level at inclusion: DHRS13 (good responders (n = 113)): 0.87 | FC, fold-change at week 4 relative to the expression level at inclusion: DHRS13 (poor responders (n = 75)): 1.04 | FC, fold-change at week 4 relative to the expression level at inclusion: FAT1 (good responders (n = 113)): 1.27 | FC, fold-change at week 4 relative to the expression level at inclusion: FAT1 (poor responders (n = 75)): 1.20 | FC, fold-change at week 4 relative to the expression level at inclusion: FBXL13 (good responders (n = 113)): 0.85 | FC, fold-change at week 4 relative to the expression level at inclusion: FBXL13 (poor responders (n = 75)): 0.92 | FC, fold-change at week 4 relative to the expression level at inclusion: GALNT14 (good responders (n = 113)): 0.78 | FC, fold-change at week 4 relative to the expression level at inclusion: GALNT14 (poor responders (n = 75)): 1.04 | FC, fold-change at week 4 relative to the expression level at inclusion: GUCY1B3 (good responders (n = 113)): 1.14 | FC, fold-change at week 4 relative to the expression level at inclusion: GUCY1B3 (poor responders (n = 75)): 1.05 | FC, fold-change at week 4 relative to the expression level at inclusion: HOMER3 (good responders (n = 113)): 0.84 | FC, fold-change at week 4 relative to the expression level at inclusion: HOMER3 (poor responders (n = 75)): 1.09 | FC, fold-change at week 4 relative to the expression level at inclusion: KAZN (good responders (n = 113)): 0.83 | FC, fold-change at week 4 relative to the expression level at inclusion: KAZN (poor responders (n = 75)): 0.94 | FC, fold-change at week 4 relative to the expression level at inclusion: KIAA0319 (good responders (n = 113)): 0.83 | FC, fold-change at week 4 relative to the expression level at inclusion: KIAA0319 (poor responders (n = 75)): 0.94 | FC, fold-change at week 4 relative to the expression level at inclusion: LINC00963 (good responders (n = 113)): 0.91 | FC, fold-change at week 4 relative to the expression level at inclusion: LINC00963 (poor responders (n = 75)): 1.08 | FC, fold-change at week 4 relative to the expression level at inclusion: NFE4 (good responders (n = 113)): 0.83 | FC, fold-change at week 4 relative to the expression level at inclusion: NFE4 (poor responders (n = 75)): 0.95 | FC, fold-change at week 4 relative to the expression level at inclusion: NLRP6 (good responders (n = 113)): 0.81 | FC, fold-change at week 4 relative to the expression level at inclusion: NLRP6 (poor responders (n = 75)): 1.09 | FC, fold-change at week 4 relative to the expression level at inclusion: NLRP12 (good responders (n = 113)): 0.87 | FC, fold-change at week 4 relative to the expression level at inclusion: NLRP12 (poor responders (n = 75)): 1.08 | FC, fold-change at week 4 relative to the expression level at inclusion: P2RY12 (good responders (n = 113)): 1.14 | FC, fold-change at week 4 relative to the expression level at inclusion: P2RY12 (poor responders (n = 75)): 1.10 | FC, fold-change at week 4 relative to the expression level at inclusion: P4HA2 (good responders (n = 113)): 0.89 | FC, fold-change at week 4 relative to the expression level at inclusion: P4HA2 (poor responders (n = 75)): 1.04 | FC, fold-change at week 4 relative to the expression level at inclusion: PLB1 (good responders (n = 113)): 0.85 | FC, fold-change at week 4 relative to the expression level at inclusion: PLB1 (poor responders (n = 75)): 0.99 | FC, fold-change at week 4 relative to the expression level at inclusion: SLC4A4 (good responders (n = 113)): 1.15 | FC, fold-change at week 4 relative to the expression level at inclusion: SLC4A4 (poor responders (n = 75)): 0.93 | FC, fold-change at week 4 relative to the expression level at inclusion: TRPC6 (good responders (n = 113)): 1.26 | FC, fold-change at week 4 relative to the expression level at inclusion: TRPC6 (poor responders (n = 75)): 0.97 | FC, fold-change at week 4 relative to the expression level at inclusion: WLS (good responders (n = 113)): 0.87 | FC, fold-change at week 4 relative to the expression level at inclusion: WLS (poor responders (n = 75)): 0.98 | DEGs before vs after treatment that survived BH-correction (good responders only, FDR threshold of 0.1, 16,204 genes expressed in PBMCs): 32 genes
